# Results as given in PubChem BioAssay (NCI).
#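 Briefly, cells in 96-well plates were exposed to five compound concentrations for 48 h, and endpoints were estimated by linear interpolation. GI50 marks 50% less growth. TGI marks complete inhibition of growth.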 Where a SMILES comes first, the peptide text is derived from it. [ ]: non-standard residue; d: D form. 2Nal = N[CH](Cc1ccc2ccccc2c1)C(=O)O
# How the values were obtained:
# Experiment in all cases: growth of human tumour cells (NCI), 48 h
# [1] = test system: SNB-19 CNS
# [2] = test system: COLO 205 colon
# [3] = test system: SNB-75 CNS
# [4] = test system: MOLT-4 leukemia
# [5] = test system: A498 renal
# [6] = test system: ACHN renal
# [7] = test system: U251 CNS
# [8] = test system: EKVX NSCLC
# [9] = test system: SK-MEL-2 melanoma
# [10] = test system: UO-31 renal
Structure (SMILES),GI50 [1],TGI [1],GI50 [2],TGI [2],GI50 [3],TGI [3],GI50 [4],TGI [4],GI50 [5],TGI [5],GI50 [6],TGI [6],GI50 [7],TGI [7],GI50 [8],TGI [8],GI50 [9],TGI [9],GI50 [10],TGI [10]
Cc1nnc(-c2ccc(C)c(-c3ccc(C(=O)NCc4ccc(Cl)cc4)cc3)c2)o1,> 22.6 µM,> 25 µM,9.08 µM,> 23.7 µM,7.88 µM,> 25 µM,9.73 µM,> 25 µM,7.03 µM,> 25 µM,12.4 µM,> 25 µM,> 25 µM,> 25 µM,7.02 µM,> 25 µM,12.7 µM,> 25 µM,4.37 µM,> 25 µM
CC1CC(C)C2=NOS3=C2C1=NO3 (stereo not drawn),,> 100 µM,,> 100 µM,,> 100 µM,,> 100 µM,,94.8 µM,,> 100 µM,,> 100 µM,,> 100 µM,,> 100 µM,,> 100 µM
O=C(Nc1cccnc1)c1ccc2ccc3ccc(C(=O)Nc4cccnc4)nc3c2n1,0.0845 µM,> 100 µM,0.135 µM,> 100 µM,0.273 µM,> 100 µM,0.419 µM,> 100 µM,0.214 µM,0.553 µM,0.145 µM,> 100 µM,0.0613 µM,> 100 µM,0.294 µM,> 100 µM,0.911 µM,> 100 µM,> 100 µM,> 100 µM
O=C(Nc1ccc2c(c1)OCO2)C(=O)c1c[nH]c2cc(F)ccc12,7.74 µM,77.3 µM,13.5 µM,> 100 µM,2.6 µM,12.1 µM,11.7 µM,69.2 µM,2.72 µM,16.7 µM,0.547 µM,20.4 µM,9.17 µM,51.7 µM,13.3 µM,> 100 µM,5.19 µM,31.1 µM,4.42 µM,44.9 µM
Nc1nc(N)c(N=Nc2ccc(C(=O)O)c(O)c2)c(N)n1,,> 100 µM,,> 100 µM,,> 100 µM,,> 100 µM,,> 100 µM,,> 100 µM,,> 100 µM,,> 100 µM,,> 100 µM,,> 100 µM
O=C1C(=O)N(c2cccc(C(F)(F)F)c2)C(=O)C(=O)C1c1nc2ccccc2s1,,> 100 µM,,> 100 µM,,> 100 µM,,> 100 µM,,> 100 µM,,> 100 µM,,> 100 µM,,> 100 µM,,> 100 µM,,> 100 µM
CN(C)CCNC(=O)c1cccc2ncc(-c3ccccc3)nc12,,78.7 µM,,15.5 µM,,32.9 µM,,9.35 µM,,31.4 µM,,> 94.3 µM,,41.7 µM,,34.3 µM,,27.9 µM,,> 67.8 µM
Cc1c(C2Cc3ccccc3N2)c2ccccc2n1C (stereo not drawn),,> 100 µM,,> 100 µM,,> 100 µM,,> 100 µM,,> 100 µM,,> 100 µM,,> 100 µM,,> 100 µM,,> 100 µM,,> 100 µM
CC(=O)ON(C(C)=O)C1C(COC(c2ccccc2)(c2ccccc2)c2ccccc2)OC2OC3(CCCC3)OC21 (stereo not drawn),,> 100 µM,,> 100 µM,,> 100 µM,,> 31 µM,,> 100 µM,,> 100 µM,,> 100 µM,,> 100 µM,,> 100 µM,,> 100 µM
O=C1[C@H](Cl)[C@H]2c3cc4ccccc4nc3Oc3ccccc3N12,,> 100 µM,,> 100 µM,,17.7 µM,,> 100 µM,,> 100 µM,,> 100 µM,,> 100 µM,,> 100 µM,,> 100 µM,,72.6 µM
O=S(=O)(Nc1ccc2ccccc2c1)c1ccc(-c2cnc(C3CC3)o2)cc1,1.49 µM,> 100 µM,1.79 µM,9.22 µM,0.616 µM,6.07 µM,0.873 µM,> 100 µM,0.462 µM,5.28 µM,2.61 µM,42.8 µM,1.25 µM,15.7 µM,2.76 µM,59.9 µM,1.43 µM,20.6 µM,1.68 µM,18.8 µM
COc1ccc(NC(=O)CCc2cc(C(C)(C)C)n[nH]2)cc1,,> 100 µM,,> 100 µM,,> 100 µM,,> 100 µM,,> 100 µM,,> 100 µM,,> 100 µM,,> 100 µM,,> 100 µM,,> 100 µM
COc1ccc(/C=C2\CC(C)CC3C2=NN(c2ccccc2)C3c2ccc(OC)c(OC)c2)cc1OC (stereo not drawn),7.39 µM,> 100 µM,4.67 µM,> 100 µM,3.4 µM,18.5 µM,2.69 µM,92.4 µM,14.5 µM,72.7 µM,4.48 µM,48.6 µM,3.92 µM,15.3 µM,5.61 µM,> 100 µM,8.8 µM,> 100 µM,5.75 µM,> 100 µM
CC(C)C(NC(=O)C(CCCCN)NC(=O)C(Cc1c[nH]c2ccccc12)NC(=O)C(Cc1ccc(O)cc1)NC(=O)C(CS)NC(=O)C(N)Cc1ccc2ccccc2c1)C(=O)NC(CS)C(=O)NC(C(N)=O)C(C)O (stereo not drawn) (H-[2Nal]CYWKVCT-NH2; configuration not given here),,> 100 µM,> 100 µM,> 100 µM,,> 100 µM,> 100 µM,> 100 µM,> 100 µM,> 100 µM,> 100 µM,> 100 µM,> 100 µM,> 100 µM,> 100 µM,> 100 µM,> 100 µM,> 100 µM,> 100 µM,> 100 µM
CC(CCCC1SCC2NC(=O)NC21)C(=O)O (stereo not drawn),,> 100 µM,,> 100 µM,,> 100 µM,,> 100 µM,,> 100 µM,,> 100 µM,,> 100 µM,,> 100 µM,,> 100 µM,,> 100 µM
CC(C)CCC(=O)[C@@H](C)[C@H]1[C@@H](OC2OCC(O)C(O)C2NS(C)(=O)=O)C[C@H]2[C@@H]3CC=C4C[C@@H](O)CC[C@]4(C)[C@H]3CC[C@]12C (stereo partly drawn),1.34 µM,6.77 µM,1.42 µM,5.92 µM,0.571 µM,9.58 µM,0.827 µM,2.57 µM,0.724 µM,1.7 µM,2.15 µM,11.6 µM,0.901 µM,7.8 µM,1.46 µM,8.85 µM,0.739 µM,2.27 µM,0.782 µM,2.12 µM
